{"source": "patent US5914237A", "about": "“Kinase receptor activation assay” (Genentech Incorporated, priority 1995, dated 1999)", "molecules": {"B1": {"name": "NT5: neurotrophin 5 prepared by recombinant techniques; ligand for trkB (protein, UniProt P34130 81-210, looked up)", "Neurotrophin-4": "GVSETAPASRRGELAVCDAVSGWVTDRRTAVDLRGREVEVLGEVPAAGGSPLRQYFFETRCKADNAEEGGPGAGGGGCRGVDRRHWVSECKAKQSYVRALTADAQGRVGWRWIRIDTACVCTLLSRTGRA"}}, "key": {"[1]": {"system": "p185^HER2 (HER2 receptor)", "assay": "p185HER2 KIRA ELISA (receptor autophosphorylation in MCF-7 cells)", "assay_type": "cell-based, human", "settings": "for receptor stimulation and autophosphorylation (assay specificity, FIG. 8): HRG up to 3000 pM, other ligands up to 30000 pM", "procedure": "MCF-7 cells (2×10^5) in 100 μl media were added to each well in a flat-bottom-96 well culture plate and cultured overnight at 37° C. in 5% CO2. The following morning the well supernatants were decanted, and the plates were lightly tamped on a paper towel. 50 μl of media containing either experimental samples or the recombinant HRGβ1177-244 standards (3000, 1000, 333, 111, 37, 12, 4, and 0 pM) was then added to each well. The cells were stimulated at 37° C. for 30 min., the well supernatants were decanted, and the plates were once again lightly tamped on a paper towel. To lyse the cells and solubilize the receptors, 100 μl of lysis buffer was added to each well. Lysis buffer consisted of 150 mM NaCl containing 50 mM HEPES (Gibco), 0.5% Triton-X 100 (Gibco), 0.01% thimerosal, 30 KIU/ml aprotinin (ICN Biochemicals, Aurora, Ohio), 1 mM 4-(2-aminoethyl)-benzenesulfonyl fluoride hydrochloride (AEBSF; ICN Biochemicals), 50 μM leupeptin (ICN Biochemicals), and 2 mM sodium orthovanadate (Na3 VO4, Sigma Chemical Co, St. Louis, Mo.), pH 7.5. The plate was then agitated gently on a plate shaker (Bellco Instruments, Vineland, N.J.) for 60 min. at room temperature.\nWhile the cells were being solubilized, an ELISA microtiter plate (Nunc Maxisorp, Inter Med, Denmark) coated overnight at 4° C. with the affinity-purified polyclonal anti-HER2 ECD (1.0 μg/ml in 50 mM carbonate buffer, pH 9.6, 100 μl/well) was decanted, tamped on a paper towel and blocked with 150 μl/well of Block Buffer [PBS containing 0.5% BSA (Intergen Company, Purchase, N.Y.) and 0.01% thimerosal] for 60 min. at room temperature with gentle agitation. After 60 minutes, the anti-HER2 ECD coated plate was washed 6 times with wash buffer (PBS containing 0.05% Tween-20 and 0.01% thimerosal) using an automated plate washer (ScanWasher 300, Skatron Instruments, Inc, Sterling, Va.).\nThe lysate containing solubilized p185^HER2 from the cell-culture microtiter well was transferred (85 μl/well) to anti-rHER2 ECD coated and blocked ELISA well and was incubated for 2 h at room temperature with gentle agitation. […] The absorbance at 450 nm was read with a reference wavelength of 650 nm (ABS450/650), using a vmax plate reader (Molecular Devices, Palo Alto, Calif.) controlled with a Macintosh Centris 650 (Apple Computers, Cupertino, Calif.) and DeltaSoft software (BioMetallics, Inc, Princeton, N.J.).\nThe standard curve shown in FIG. 7 was generated by stimulating MCF-7 cells with 3000, 1000, 333, 111, 37, 12, 4, or 0 pM HRGβ1177-244 and presented as pM HRGβ1177-244 vs. mean ABS450/650 ±sd using the DeltaSoft program. Sample concentrations were obtained by interpolation of their absorbance on the standard curve and are expressed in terms of pM HRGβ1177-244 activity."}, "trkA.IgG": {"biological_target": "trkA.IgG", "assay": "Competitive displacement binding with iodinated NGF to trkA.IgG", "set-up": "species or system human", "procedure": "(§1) The media mentioned above (having the gD.trk.IgG) was used without further purification in binding assays to assess the effects of the presence of the gD flag polypeptide on neurotrophin binding to the gD.trk.IgG polypeptides. DNA encoding untagged trk.IgG polypeptide was run in parallel as a control. trk.IgG and gD tagged trk.IgG containing cell supernatants were prepared as described and used in competitive displacement assays with the appropriate iodinated neurotrophin. NGF is used as ligand for trkA, NT5 is used as ligand for trkB, and NT3 is used as a ligand for trkC."}, "trkC.IgG": {"biological_target": "trkC.IgG", "assay": "Competitive displacement binding with iodinated NT3 to trkC.IgG", "set-up": "species or system human", "procedure": "as §1"}, "trkB.IgG": {"biological_target": "trkB.IgG", "assay": "Competitive displacement binding with iodinated NT5 to trkB.IgG", "set-up": "species or system human", "procedure": "as §1"}}, "note": "Like-named read-outs stand apart in the source and are kept apart here.", "data": [{"molecule": "VEGF", "values": [{"measurement": "receptor stimulation and autophosphorylation (assay specificity, FIG. 8)", "setting": "[1]", "value": "Neither insulin-like growth factor-1 (IGF-1), vascular endothelial growth factor (VEGF) nor insulin have any detectable effect"}]}, {"molecule": "IGF-1: insulin-like growth factor-1", "values": [{"measurement": "receptor stimulation and autophosphorylation (assay specificity, FIG. 8)", "setting": "[1]", "value": "Neither insulin-like growth factor-1 (IGF-1), vascular endothelial growth factor (VEGF) nor insulin have any detectable effect"}]}, {"molecule": "insulin: insulin", "values": [{"measurement": "receptor stimulation and autophosphorylation (assay specificity, FIG. 8)", "setting": "[1]", "value": "Neither insulin-like growth factor-1 (IGF-1), vascular endothelial growth factor (VEGF) nor insulin have any detectable effect"}]}, {"molecule": "NGF: nerve growth factor prepared by recombinant techniques; ligand for trkA", "values": [{"measurement": "IC50", "setting": "trkA.IgG; gD tagged trkA.IgG, read-out: IC50 with gD", "value": "68.8 ± 3", "unit": "pM"}, {"measurement": "IC50", "setting": "trkA.IgG; trkA.IgG, untagged, read-out: IC50 without gD", "value": "68.4 ± 11.9", "unit": "pM"}]}, {"molecule": "EGF: epidermal growth factor", "values": [{"measurement": "OD450/650", "setting": "[1]; highest concentration tested (100 nM)", "value": 0.239}]}, {"molecule": "NT3: neurotrophin 3 prepared by recombinant techniques; ligand for trkC", "values": [{"measurement": "IC50", "setting": "trkC.IgG; gD tagged trkC.IgG, read-out: IC50 with gD", "value": "30.2 ± 0.7", "unit": "pM"}, {"measurement": "IC50", "setting": "trkC.IgG; trkC.IgG, untagged, read-out: IC50 without gD", "value": "31.1 ± 1.1", "unit": "pM"}]}, {"molecule": "B1", "values": [{"measurement": "IC50", "setting": "trkB.IgG; gD tagged trkB.IgG, read-out: IC50 with gD", "value": "12.1 ± 18", "unit": "pM"}, {"measurement": "IC50", "setting": "trkB.IgG; trkB.IgG, untagged, read-out: IC50 without gD", "value": "31.1 ± 15.6", "unit": "pM"}]}]}
